Here are results for five substances from US6362010B1, “Methods and compositions for release of CD3430 cells from affinity matrices” (priority 1995, dated 2002).

The test system of test [1] is mAb12.8. It is filed as binding. The conditions noted are these: for binding to mAb12.8: ELISA of Example 2 part A / Example 3, FIG. 4, GM3 immobilized from methanol; for A450 (absorbance at 450 nm): 10 μg/mL mAb12.8. Here is the method: Microtiter plates are prepared with serial dilutions of 3′SL-HSA (prepared as described in Example 1) in Tris-Ca^++ buffer (0.05M Tris HCl, pH 7.5, 0.15 M NaCl, 2 mM CaCl2), starting with 500 ng/well. The plates are incubated at 37° C. for 1 hour to immobilize the carbohydrate on the plastic well surface.
100 μl of 2% BSA in Tans-Cat^++ buffer is added to each well, and the plates are incubated at room temperature for 1 hour, and washed 3 times with Tris-Ca^++ buffer. 100 μl of 10 μg/mL mAb12.8 in 1% BSA Tris-Ca^++ buffer is then added to each well, and the plates are incubated at room temperature for 2 hours. Again, the plates are washed 3 times with Tris-Ca^++ buffer.
100 μl of 1 μg/mL peroxidase-labeled goat anti-mouse IgM (KPL, Inc., Gaithersburg, Md.) in 1% BSA Tris-Ca^++ buffer is added to each well, and the plates are incubated at room temperature for 1 hour, and washed 3 times with Tris-Ca^++ buffer. 100 μl of TMB (tetramethylbenzidine) substrate solution (KPL, Inc., Gaithersburg, Md.) is then added to each well, and the reaction is allowed to proceed for 2 minutes. The reaction is stopped, and detection enhanced, by the addition of 100 μl of 1M formic acid/well. The absorbance at 450 nm is then determined in a Titertek Multiskan MCC/340 plate reader (Flow Laboratories. Inc., McLean, Va.).
To illustrate the specificity of the interaction between 3′SL-HSA and mAb 12.8, and to further characterize the epitope of the antibody, the assay described in Example 2, part A, is performed using the control carbohydrates shown below:
The assays of each of the above HSA conjugates are performed as described for 3′SL-HSA. For GM3, the assay is as described above except that dilutions of GM3 are prepared in methanol, and immobilization on the plastic well surface is achieved by allowing the methanol to completely evaporate under an exhaust hood. After immobilization, 100 μl of 1% BSA in Tris-Ca^++ buffer is added to the wells containing GM3.
In general terms: In an ELISA, binding on a coated surface is turned into a signal by an enzyme label.

Test [2] has as its system mAb12.8. Kind of test: ELISA, binding of defucosylated SLe^x epitope to mAb12.8 with and without α1,3,4 fucosidase treatment. The conditions noted are these: 250 ng per well, FIG. 3; for binding to mAb12.8 after fucosidase treatment: 200 units per well α1,3,4 fucosidase, 37° C. overnight. Further details: species or system mouse. The protocol: In a related experiment, the binding of a partially defucosylated SLe^X epitope (coupled to HSA) is evaluated using a similar ELISA. […] 100 μl of 2% BSA in Tris-Ca^++ buffer is added to each well to block further non-specific binding, and the plates are incubated at room temperature for 1 hour, followed by 2 washes with Tris-Ca^++ buffer. 200 units per well of α1,3,4 fucosidase (New England Biolabs, Beverly, Mass.) in citrate buffer (pH 4.0) is then added to half of the wells. The plates are covered and incubated at 37° C. overnight.
The plates are then washed three times with Tris-Ca^++ buffer and mAb12.8 (100 μl of 10 μg/mL mAb12.8 in Tris-Ca^++ buffer) is then added to each well except for 1 negative control for each condition. The plates are incubated at room temperature for 2 hours.
The plates are then washed 3 times with Tris-Ca^++ buffer, and 100 μl of 1 μg/mL peroxidase-labeled goat anti-mouse IgM (KPL, Inc., Gaithersburg, Md.) in 1% BSA Tris-Ca^++ buffer is added to each well. The plates are incubated at room temperature for 1 hour. The wells are then washed 5 times with Tris-Ca^++ buffer, and 100 μl of TMB substrate solution (KPL, Gaithersburg, Md.) is added to each well, and the reaction is allowed to proceed for 2 minutes. The reaction is stopped, and detection enhanced, by the addition of 100 μl of IM formic acid/well. The absorbance at 450 nm is then determined in a Titertek Multiskan MCC/340 plate reader (Flow Laboratories, Inc., McLean, Va.).

In test [3] the test system is KG1A cells bound to mAb12.8. Kind of test: Parallel plate flow assay, inhibition of CD34+ (KG1A) cell binding to immobilized mAb12.8. It is filed as cell-based. The conditions noted are these: 200 ng carbohydrate per dish, 250 ng mAb12.8, wall shear stress 0.48 dynes/cm^2 for 2 minutes; FIG. 5. Here is the method: This Example illustrates the use of a representative carbohydrate according to this invention to release KG1A cells (ATCC No. CCL246.1, Rockville, Md.) bound to mAb12.8.
Monoclonal antibody 12.8 is immobilized on 35 mm tissue culture dishes by adsorption, as shown below:
Each substrate is coated on the dish and incubated at 37° C. for 1 hour prior to adding the next substrate or running the flow assay. The flow assay utilizes a parallel plate flow chamber mounted on an inverted-stage microscope to visualize the adhesive interactions between cells and substrates. Each dish is attached to the flow chamber and mounted on the microscope stage.
To prevent binding of the cells to mAb12.8 by way of Fc receptors on the cell surface, human IgG ([…]) is added to the KG1A cells 10 minutes prior to the flow assay. In addition, 200 ng of 3′SL-HSA is added to dish 2, and 200 ng of 6′SL-HSA is added to dish 3, and flow is initiated such that the cells flow over the surface of the dish at a wall shear stress of 0.48 dynes/cm^2 for 2 minutes, prior to collecting images at 7 different locations on the dish. The images are then quantified, using video microscopy coupled to digital image processing, to determine the number of adherent cells in each image, and the number of cells in the 7 images are averaged.

In test [4] the test system is mAb12.8. Kind of test: ELISA, effect of varying linker arm and carrier group on carbohydrate binding to mAb12.8. Further details: species or system mouse. To be noted: 100 μl of carbohydrate at 0.5 μg/ml immobilized; 10 μg/ml mAb12.8; FIG. 2. The protocol:
The effect of altering the chemical linker arm and carrier group on the 3′SL binding to mAb12.8 is evaluated using the following carbohydrates, prepared as described in example 1: 3′SL-APD-dendrimer. 3′SL-APD-BSA. 3′SL-APEA-BSA, 3′SL-APD-HSA and 6′SL-APD-HSA.
100 μl of each of the above carbohydrates is added to duplicate wells in a 96-well microtiter plate at 0.5 μg/ml. The plates are incubated overnight at 4° C. to immobilize the carbohydrates on the plastic well surface. The wells are then washed three times and filled with Tris-Cat^++ buffer (0.05 M Tris-HCl, pH 7.5, 0.15 M NaCl, 2 mM CaCl2) containing 1% BSA. The plates are then incubated for 1 hour at room temperature to block nonspecific binding.
The plates are washed three times with Tris-Ca^++ buffer and mAb 12.8 (100 μl of 10 μg/ml in Tris-Ca^++ buffer) is added to all wells except one negative control for each condition. The plates are incubated for an additional two hours at room temperature. […]
Wells are washed five times with Tris-Ca^++ buffer and 100 μl of tetramethylbenzidine solution (TMB substrate solution. KPL, Inc., Gaithersburg, Md.) is added. […] The microtiter plate is read in a Titertek Multiskan MCC/340 plate reader (Flow Laboratories, Inc., McLean, Va.) set at a wavelength of 450 nm.

Like-named read-outs stand apart in the source and are kept apart here.

As for “Neu5Acα2-3Galβ1-3GlcNAcβ1-3Galβ1-4(Glc)-APD-HSA [LSTa-HSA, reference compound]”, the “binding to mAb12.8” value in the test with mAb12.8 [1] is “does not bind”.

Take “Neu5Acα2-3Galβ1-4(Glc)-APD-HSA [3′SL-HSA]”: the “binding to mAb12.8” value is on record as “binds to mAb12.8” with mAb12.8 [1] and “bind to mAb12.8” in the test on mAb12.8 [2] (absence of fucosidase treatment). In addition, the entries for the “A450 (absorbance at 450 nm)” value in the test with mAb12.8 [1] (about 100 ng per well immobilized carbohydrate), in the test with mAb12.8 [1] (about 200 ng per well immobilized carbohydrate) and with mAb12.8 [1] (amounts less than about 70 ng/well immobilized carbohydrate) were “greater than 1”, ~3 and “approximately 0.5”, respectively. Also, in the test with mAb12.8 [2], the “binding to mAb12.8 after fucosidase treatment” value is given as “no detectable effect on binding”. For the same substance, the “inhibition of binding of KG1A cells to mAb12.8” value in test [3] is on record as “inhibits the binding of KG1A cells to mAb12.8”.

For “Neu5Acα2-3Galβ1-4GlcNAcβ1-3Galβ1-4(Glc)-HSA”, the “binding to mAb12.8 after fucosidase treatment” value with mAb12.8 [2] was “bind to mAb12.8”.

With “Neu5Acα2-3Galβ1-4Glcβ1-1Ceramide [GM3, reference compound]”, in the test on mAb12.8 [1], the “binding to mAb12.8” value is “does not bind”.

With “Neu5Acα2-6Galβ1-4(Glc)-APD-HSA [6′SL-HSA, reference compound]”, the “binding to mAb12.8” value with mAb12.8 [1] and in the test with mAb12.8 [4] was “does not bind” each time.
